Drawing on ChEMBL document CHEMBL4229381, “New cytokinin derivatives possess UVA and UVB photoprotective effect on human skin cells and prevent oxidative stress” (Eur J Med Chem, 2018), this text covers Activity and viability for 9 compounds.

The structures appear in SMILES notation. Calls of active or inactive are those of the source. The rule behind the calls is not given here.

One data set has as its system Nicotiana tabacum. The experiment in a line: Growth promoting activity in tobacco callus assessed as callus weight at 10^-5 mol/L after 4 weeks relative to control. Type of data set: functional.
The test system of another data set is Amaranthus caudatus. The experiment in a line: Growth promoting activity in Amaranthus caudatus var. atropurpurea seeds by measuring betacyanin at 10^-4 mol/L after 48 hrs relative to control. Type of data set: functional.
A further data set concerns Triticum aestivum. Put plainly: Anti-senescent activity in leaf of Triticum aestivum cv. Hereward seedlings by measuring chlorophyll retention at 10^-4 mol/L after 4 days relative to control. Type of data set: functional.
The subject of data set [1] is NHDF. The experiment in a line: Cytoprotection against phototoxicity in human NHDF cells assessed as increase in cell viability at 3.9 to 31.3 uM preincubated for 60 mins followed by 7.5 J/cm2 UVA irradiation and measured after 24 hrs by neutral red uptake assay. Type of data set: functional, cell-based.
The test system of data set [2] is NHDF. Put plainly: Cytoprotection against phototoxicity in human NHDF cells assessed as increase in cell viability at 3.9 to 31.3 uM preincubated for 60 mins followed by 150 mJ/cm2 UVB irradiation and measured after 24 hrs by neutral red uptake assay. Type of data set: functional, cell-based.
The next data set concerns Caenorhabditis elegans. Put plainly: Protection against juglone-induced oxidative stress in Caenorhabditis elegans BA17 (fem-1) at 100 uM preincubated for 3 days followed by juglone addition measured every hour for 12 ro 14 hrs by inverted microscopic analysis. The format is functional, organism-based.
The test system of data set [3] is HaCaT. Put plainly: Cytoprotection against phototoxicity in human HaCaT cells assessed as increase in cell viability at 3.9 to 31.3 uM preincubated for 60 mins followed by 10 J/cm2 UVA irradiation and measured after 24 hrs by neutral red uptake assay. The format is functional, cell-based.
For data set [4], the system named is HaCaT. Put plainly: Cytoprotection against phototoxicity in human HaCaT cells assessed as increase in cell viability at 3.9 uM preincubated for 60 mins followed by 10 J/cm2 UVA irradiation and measured after 24 hrs by neutral red uptake assay. Type of data set: functional, cell-based.
Data set [5] can be described thus: Antioxidant activity assessed as trolox equivalent of AAPH-induced radical scavenging activity at 1 uM pretreated for 15 mins followed by […] challenge measured every 3 mins over 90 mins by ORAC-FL assay. Type of data set: functional.
Data set [6] has as its system HaCaT. The experiment in a line: Cytotoxicity in human HaCaT cells assessed as reduction in cell viability at 50 uM after 24 hrs by resazurin dye-based fluorescence assay relative to control. Background: Alamar Blue is a resazurin reagent that responds to reducing activity.
The subject of the next data set is BJ. The experiment in a line: Cytotoxicity in human BJ cells assessed as reduction in cell viability at 50 uM after 24 hrs by resazurin dye-based fluorescence assay relative to control.
The nature of data set [7]: Cytotoxicity in human NHDF cells assessed as cell viability at 3.9 uM after 24 hrs by neutral red uptake assay relative to control. The format is cell-based. To be noted: read-out: Activity.
A short description of data set [8]: Cytotoxicity in human NHDF cells assessed as cell viability at 7.8 uM after 24 hrs by neutral red uptake assay relative to control. The format is cell-based. The following applies: read-out: Activity.
Data set [9] is described as follows: Cytotoxicity in human NHDF cells assessed as cell viability at 15.6 uM after 24 hrs by neutral red uptake assay relative to control. Type of data set: cell-based. The following applies: read-out: Activity.
A short description of data set [10]: Cytotoxicity in human NHDF cells assessed as cell viability at 31.3 uM after 24 hrs by neutral red uptake assay relative to control. Type of data set: cell-based. To be noted: read-out: Activity.
Data set [11] is described as follows: Cytotoxicity in human NHDF cells assessed as cell viability at 62.5 uM after 24 hrs by neutral red uptake assay relative to control. To be noted: read-out: Activity. Type of data set: cell-based.
The nature of data set [12]: Cytotoxicity in human NHDF cells assessed as cell viability at 125 uM after 24 hrs by neutral red uptake assay relative to control. The format is cell-based. The following applies: read-out: Activity.
Data set [13] can be described thus: Phototoxicity in human NHDF cells assessed as cell viability at 3.9 uM preincubated for 60 mins followed by 5 J/cm2 UVA irradiation and measured after 24 hrs by neutral red uptake assay relative to control. Type of data set: cell-based. To be noted: read-out: Activity.
Data set [14] is described as follows: Phototoxicity in human NHDF cells assessed as cell viability at 7.8 uM preincubated for 60 mins followed by 5 J/cm2 UVA irradiation and measured after 24 hrs by neutral red uptake assay relative to control. The following applies: read-out: Activity. The format is cell-based.
A short description of data set [15]: Phototoxicity in human NHDF cells assessed as cell viability at 15.6 uM preincubated for 60 mins followed by 5 J/cm2 UVA irradiation and measured after 24 hrs by neutral red uptake assay relative to control. Type of data set: cell-based. The following applies: read-out: Activity.
A short description of data set [16]: Phototoxicity in human NHDF cells assessed as cell viability at 31.3 uM preincubated for 60 mins followed by 5 J/cm2 UVA irradiation and measured after 24 hrs by neutral red uptake assay relative to control. The format is cell-based. To be noted: read-out: Activity.
The nature of data set [17]: Phototoxicity in human NHDF cells assessed as cell viability at 62.5 uM preincubated for 60 mins followed by 5 J/cm2 UVA irradiation and measured after 24 hrs by neutral red uptake assay relative to control. The format is cell-based. The following applies: read-out: Activity.
The nature of data set [18]: Phototoxicity in human NHDF cells assessed as cell viability at 125 uM preincubated for 60 mins followed by 5 J/cm2 UVA irradiation and measured after 24 hrs by neutral red uptake assay relative to control. The format is cell-based. The following applies: read-out: Activity.
Data set [19] in a line: Cytotoxicity in human HaCaT cells assessed as cell viability at 3.9 uM after 24 hrs by neutral red uptake assay relative to control. The format is cell-based. To be noted: read-out: Activity.
A short description of data set [20]: Cytotoxicity in human HaCaT cells assessed as cell viability at 7.8 uM after 24 hrs by neutral red uptake assay relative to control. To be noted: read-out: Activity. The format is cell-based.
The nature of data set [21]: Cytotoxicity in human HaCaT cells assessed as cell viability at 15.6 uM after 24 hrs by neutral red uptake assay relative to control. The following applies: read-out: Activity. Type of data set: cell-based.
Data set [22] is described as follows: Cytotoxicity in human HaCaT cells assessed as cell viability at 31.3 uM after 24 hrs by neutral red uptake assay relative to control. To be noted: read-out: Activity. Type of data set: cell-based.
A short description of data set [23]: Cytotoxicity in human HaCaT cells assessed as cell viability at 125 uM after 24 hrs by neutral red uptake assay relative to control. Type of data set: cell-based. To be noted: read-out: Activity.
The nature of data set [24]: Phototoxicity in human HaCaT cells assessed as cell viability at 3.9 uM preincubated for 60 mins followed by 7.5 J/cm2 UVA irradiation and measured after 24 hrs by neutral red uptake assay relative to control. The format is cell-based. To be noted: read-out: Activity.
Data set [25] in a line: Phototoxicity in human HaCaT cells assessed as cell viability at 7.8 uM preincubated for 60 mins followed by 7.5 J/cm2 UVA irradiation and measured after 24 hrs by neutral red uptake assay relative to control. To be noted: read-out: Activity. The format is cell-based.
Data set [26] in a line: Phototoxicity in human HaCaT cells assessed as cell viability at 15.6 uM preincubated for 60 mins followed by 7.5 J/cm2 UVA irradiation and measured after 24 hrs by neutral red uptake assay relative to control. The format is cell-based. The following applies: read-out: Activity.
A short description of data set [27]: Phototoxicity in human HaCaT cells assessed as cell viability at 31.3 uM preincubated for 60 mins followed by 7.5 J/cm2 UVA irradiation and measured after 24 hrs by neutral red uptake assay relative to control. Type of data set: cell-based. The following applies: read-out: Activity.
A short description of data set [28]: Phototoxicity in human HaCaT cells assessed as cell viability at 62.5 uM preincubated for 60 mins followed by 7.5 J/cm2 UVA irradiation and measured after 24 hrs by neutral red uptake assay relative to control. The following applies: read-out: Activity. The format is cell-based.
The nature of data set [29]: Phototoxicity in human HaCaT cells assessed as cell viability at 125 uM preincubated for 60 mins followed by 7.5 J/cm2 UVA irradiation and measured after 24 hrs by neutral red uptake assay relative to control. The format is cell-based. To be noted: read-out: Activity.
Data set [30] deals with NHDF. Put plainly: Cytoprotection against phototoxicity in human NHDF cells assessed as increase in cell viability at 31.3 uM preincubated for 60 mins followed by 150 mJ/cm2 UVB irradiation and measured after 24 hrs by neutral red uptake assay. Type of data set: functional, cell-based.
Data set [31] is described as follows: Cytotoxicity in human HaCaT cells assessed as cell viability at 62.5 uM after 24 hrs by neutral red uptake assay relative to control. The following applies: read-out: Activity. The format is cell-based.

Consider `c1csc(CCNc2ncnc3[nH]cnc23)c1`, for which the results for the Activity with Nicotiana tabacum and in the data set with Amaranthus caudatus were 77% and 80%, respectively. The result with Triticum aestivum was inactive.

Regarding `c1coc(CNc2ncnc3c2ncn3C2CCCO2)c1` (centres undefined), the outcome with NHDF [1], with NHDF [2] and with Caenorhabditis elegans was Active. The results for the Activity in the data set with Nicotiana tabacum, with Amaranthus caudatus and in the data set with Triticum aestivum were 111%, 70% and 125%, respectively.

Regarding `Clc1nc(NCc2cccs2)c2ncn(C3CCCO3)c2n1` (centres undefined), the Activity with Nicotiana tabacum came to 108%; in the data set with Amaranthus caudatus, 101%. For the same compound, in the data set with Triticum aestivum, the outcome was inactive.

Turning to `c1nc(NCC2CCCC2)c2nc[nH]c2n1`, the results for the Activity in the data set on Nicotiana tabacum, with Amaranthus caudatus and in the data set with Triticum aestivum were 100%, 97% and 71%, respectively.

As to `O=C(/C=C/c1ccc(O)c(O)c1)O[C@H](Cc1ccc(O)c(O)c1)C(=O)O`, the outcome in the data set with NHDF [1], in the data set with HaCaT [3], in the data set on HaCaT [4] and in the data set with NHDF [2] was Active. The Activity in data set [5] worked out at 9.14 equiv.

Consider `c1ccc(CNc2ncnc3[nH]cnc23)cc1` [6-BENZYLAMINOPURINE], for which the Activity in the data set on Nicotiana tabacum was 20%.

In the case of `c1nc(NCC2CCCO2)c2nc[nH]c2n1` (centres undefined), the Activity is under 10% in the data set with HaCaT [6]; under 10% in the data set on BJ; under 0.05 equiv in data set [5]; 110% in the data set on Nicotiana tabacum; 109% in the data set with Amaranthus caudatus; 114% with Triticum aestivum. Also, the viability at 24 h, 3.9 µM was 102% in data set [7], 99% in data set [13], 102% in data set [19] and 101% in [24]. The viability at 24 h, 7.8 µM worked out at 103% in [8], 101% in data set [14], 104% in data set [20] and 103% in data set [25]. Further, the viability at 24 h, 15.6 µM was 101% in data set [9], 100% in data set [15], 102% in [21] and 106% in data set [26]. The viability at 24 h, 31.3 µM in data set [10] came to 102%; in [16] it was 101%; in [22], 104%; in data set [27] it was 113%. Moreover, the viability at 24 h, 62.5 µM in data set [11] amounted to 102%; in data set [17], 100%; in [28] it was 118%. For the same compound, the viability at 24 h, 125 µM in [12] came to 101%; in data set [18] it was 103%; in data set [23], 102%; in [29], 119%. Further, the result in the data set with HaCaT [4] and with NHDF [30] was Active.

Take `Cc1ccsc1CNc1ncnc2c1ncn2C1CCCO1` (centres undefined): the Activity with Nicotiana tabacum was determined as 99%; with Triticum aestivum, 110%.

`OCc1ccc(CNc2ncnc3c2ncn3C2CCCO2)o1` (centres undefined): the Activity in the data set with HaCaT [6] is under 10%; in the data set on BJ it was under 10%; in data set [5], 0.77 equiv; with Nicotiana tabacum it was 103%; with Triticum aestivum, 75%. For the same compound, the viability at 24 h, 3.9 µM stood at 103% in data set [7], 101% in data set [13], 100% in [19] and 104% in data set [24]. Further, the viability at 24 h, 7.8 µM came out at 105% in data set [8], 107% in data set [14], 100% in data set [20] and 111% in [25]. The viability at 24 h, 15.6 µM in data set [9] was 104%; in [15] it was 102%; in data set [21] it was 102%; in [26], 108%. The viability at 24 h, 31.3 µM in data set [10] came to 108%; in data set [16], 107%; in data set [22], 108%; in data set [27] it was 118%. Also, the viability at 24 h, 62.5 µM in [11] stood at 107%; in [17], 111%; in data set [31] it was 106%; in data set [28], 121%. For the same compound, the viability at 24 h, 125 µM in [12] was 110%; in [18], 112%; in data set [23], 110%; in data set [29], 125%. The outcome with HaCaT [4] was Active.
